# Reference: patent US4345938A, “Herbicidal 2-haloacetanilides” (Monsanto Company, priority 1980, dated 1982)
# Read-outs that look alike come from different tables or passages of the source.
# Tests used:
# Format in all cases: in vivo
# [1] = system: Echinochloa crus-galli; assay: Greenhouse transplant rice test, EC; details: about 3 WAT, read-out: Percent Inhibition, EC
# Excerpt: (§1) The test procedure used in this greenhouse test is as follows: Ray silt loam top soil containing about 0.05% by weight of krillium and sifted through a […] screen is fumigated about 5-10 days prior to use. Pots are then filled with said Ray silt loam soil to a level to allow for a 1 in. (2.54 cm) flooding depth. Rice plants (Bluebelle) of 2 to 3 weeks age are transplanted to the pots and bulbs or seeds of the test weeds also planted in the pots. The pots are then flooded and the test chemical applied to the surface of the flood water. The flood water is reduced to allow for germination of the Echinochloa crus-galli (barnyardgrass) seed and subsequently reflooded and maintained in that condition. Observations of percent inhibition using a scale of 0-100% are made about 3 weeks after transplant (WAT).
# (§2) The test data in Table III for all compounds was obtained under identical test conditions. The weeds used in the tests herein have the following abbreviations in the tables: Echinochloa crus-galli (EC), Monochloria vaginalis (MV), Cyperus Serotinus (CS), Eleocharis Kuroguwai (EK) and Sagittaria trifolia (ST).
# [2] = system: Cyperus serotinus; assay: Greenhouse transplant rice test, CS; details: about 3 WAT, read-out: Percent Inhibition, CS
# Excerpt: as §1, §2
# [3] = system: Monochoria vaginalis; assay: Field transplant rice test, applied 0 DAT, MV; details: Pontederia vaginalis, 0 h, read-out: Percent Inhibition, MV; for inhibition at 375 g/ha: 0.375 Kg/Ha; for inhibition at 750 g/ha: 0.75 Kg/Ha; for inhibition at 1500 g/ha: 1.5 Kg/Ha; for inhibition at 3000 g/ha: 3.0 Kg/Ha
# Outline: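 Field test in transplanted rice, herbicide applied as granules (2.5% or 5.0% w/w active) at transplanting (0 DAT). Rates from 3.0 kg/ha down to 0.375 kg/ha. Weed control observed weekly from 2 to 6 weeks after transplant, reported at 2, 4 and 6 WAT.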
# [4] = system: Echinochloa crus-galli; assay: Field transplant rice test, applied 9 DAT, EC; details: Echinochloa crus-galli, 216 h, read-out: Percent Inhibition, EC; for inhibition at 375 g/ha: 0.375 Kg/Ha; for inhibition at 750 g/ha: 0.75 Kg/Ha; for inhibition at 1500 g/ha: 1.5 Kg/Ha; for inhibition at 3000 g/ha: 3.0 Kg/Ha
# Outline: (§3)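 Field test in transplanted rice, herbicides applied as granules (2.5% or 5.0% w/w active) 9 days after transplant at 3.0 down to 0.375 kg/ha. Weed control observed weekly from 3 to 7 weeks after transplant.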
# [5] = system: Monochoria vaginalis; assay: Field transplant rice test, applied 9 DAT, MV; details: for inhibition at 375 g/ha / inhibition at 750 g/ha / inhibition at 1500 g/ha / inhibition at 3000 g/ha: Pontederia vaginalis, 216 h, read-out: Percent Inhibition, MV; for inhibition at 375 g/ha: 0.375 Kg/Ha; for inhibition at 750 g/ha: 0.75 Kg/Ha; for inhibition at 1500 g/ha: 1.5 Kg/Ha; for inhibition at 3000 g/ha: 3.0 Kg/Ha
# Outline: as §3
# [6] = system: Eleocharis kuroguwai; assay: Field transplant rice test, applied 9 DAT, EK; details: for inhibition at 375 g/ha / inhibition at 750 g/ha / inhibition at 1500 g/ha / inhibition at 3000 g/ha: Eleocharis kuroguwai, 216 h, read-out: Percent Inhibition, EK; for inhibition at 375 g/ha: 0.375 Kg/Ha; for inhibition at 750 g/ha: 0.75 Kg/Ha; for inhibition at 1500 g/ha: 1.5 Kg/Ha; for inhibition at 3000 g/ha: 3.0 Kg/Ha
# Outline: as §3
# [7] = system: Sagittaria trifolia; assay: Field transplant rice test, applied 9 DAT, ST; details: 216 h, read-out: Percent Inhibition, ST; for inhibition at 375 g/ha: 0.375 Kg/Ha; for inhibition at 750 g/ha: 0.75 Kg/Ha; for inhibition at 1500 g/ha: 1.5 Kg/Ha; for inhibition at 3000 g/ha: 3.0 Kg/Ha
# Outline: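 Field test in transplant rice: herbicides applied 9 DAT as granules (2.5% or 5.0% by weight active) at 3.0 down to 0.375 kg/ha. Weed control observed weekly from 3 to 7 WAT.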
smiles,measurement,setting,value
"CCCCOc1cccc(CC)c1N(C)C(=O)CCl [Example 1, N-methyl-2'-n-butoxy-6'-ethyl-2-chloroacetanilide]",inhibition at 280 g/ha,[1]; 0.28 Kg/Ha,100%
same,inhibition at 560 g/ha,[1]; 0.56 Kg/Ha,100%
same,inhibition at 1120 g/ha,[1]; 1.12 Kg/Ha,100%
same,inhibition at 2240 g/ha,[1]; 2.24 Kg/Ha,100%
same,inhibition at 280 g/ha,[2]; 0.28 Kg/Ha,85%
same,inhibition at 560 g/ha,[2]; 0.56 Kg/Ha,100%
same,inhibition at 1120 g/ha,[2]; 1.12 Kg/Ha,100%
same,inhibition at 2240 g/ha,[2]; 2.24 Kg/Ha,100%
same,inhibition at 375 g/ha,[3]; 2 WAT,98%
same,inhibition at 375 g/ha,[3]; 4 WAT,100%
same,inhibition at 375 g/ha,[3]; 6 WAT,93%
same,inhibition at 750 g/ha,[3]; 2 WAT,100%
same,inhibition at 750 g/ha,[3]; 4 WAT,99%
same,inhibition at 750 g/ha,[3]; 6 WAT,97%
same,inhibition at 1500 g/ha,[3]; 2 WAT,100%
same,inhibition at 1500 g/ha,[3]; 4 WAT,100%
same,inhibition at 1500 g/ha,[3]; 6 WAT,100%
same,inhibition at 3000 g/ha,[3]; 2 WAT,100%
same,inhibition at 3000 g/ha,[3]; 4 WAT,100%
same,inhibition at 3000 g/ha,[3]; 6 WAT,100%
same,inhibition at 375 g/ha,[4]; 3 WAT,90%
same,inhibition at 375 g/ha,[4]; 5 WAT,88%
same,inhibition at 375 g/ha,[4]; 7 WAT,78%
same,inhibition at 750 g/ha,[4]; 3 WAT,100%
same,inhibition at 750 g/ha,[4]; 5 WAT,100%
same,inhibition at 750 g/ha,[4]; 7 WAT,100%
same,inhibition at 1500 g/ha,[4]; 3 WAT,100%
same,inhibition at 1500 g/ha,[4]; 5 WAT,98%
same,inhibition at 1500 g/ha,[4]; 7 WAT,100%
same,inhibition at 3000 g/ha,[4]; 3 WAT,100%
same,inhibition at 3000 g/ha,[4]; 5 WAT,100%
same,inhibition at 3000 g/ha,[4]; 7 WAT,100%
same,inhibition at 375 g/ha,[5]; 3 WAT,100%
same,inhibition at 375 g/ha,[5]; 5 WAT,100%
same,inhibition at 375 g/ha,[5]; 7 WAT,100%
same,inhibition at 750 g/ha,[5]; 3 WAT,100%
same,inhibition at 750 g/ha,[5]; 5 WAT,100%
same,inhibition at 750 g/ha,[5]; 7 WAT,100%
same,inhibition at 1500 g/ha,[5]; 3 WAT,100%
same,inhibition at 1500 g/ha,[5]; 5 WAT,100%
same,inhibition at 1500 g/ha,[5]; 7 WAT,100%
same,inhibition at 3000 g/ha,[5]; 3 WAT,100%
same,inhibition at 3000 g/ha,[5]; 5 WAT,100%
same,inhibition at 3000 g/ha,[5]; 7 WAT,100%
same,"selectivity factor (GR15/GR85), MV in transplant rice",[5]; between 3 WAT and 7 WAT,16
same,inhibition at 375 g/ha,[6]; 3 WAT,80%
same,inhibition at 375 g/ha,[6]; 5 WAT,52%
same,inhibition at 375 g/ha,[6]; 7 WAT,15%
same,inhibition at 750 g/ha,[6]; 3 WAT,83%
same,inhibition at 750 g/ha,[6]; 5 WAT,68%
same,inhibition at 750 g/ha,[6]; 7 WAT,13%
same,inhibition at 1500 g/ha,[6]; 3 WAT,82%
same,inhibition at 1500 g/ha,[6]; 5 WAT,65%
same,inhibition at 1500 g/ha,[6]; 7 WAT,0%
same,inhibition at 3000 g/ha,[6]; 3 WAT,93%
same,inhibition at 3000 g/ha,[6]; 5 WAT,93%
same,inhibition at 3000 g/ha,[6]; 7 WAT,67%
same,"selectivity factor (GR15/GR85), EK in transplant rice",[6]; up to 5 WAT,about 2
same,inhibition at 375 g/ha,[7]; 3 WAT,50%
same,inhibition at 375 g/ha,[7]; 5 WAT,23%
same,inhibition at 375 g/ha,[7]; 7 WAT,18%
same,inhibition at 750 g/ha,[7]; 3 WAT,43%
same,inhibition at 750 g/ha,[7]; 5 WAT,33%
same,inhibition at 750 g/ha,[7]; 7 WAT,13%
same,inhibition at 1500 g/ha,[7]; 3 WAT,40%
same,inhibition at 1500 g/ha,[7]; 5 WAT,13%
same,inhibition at 1500 g/ha,[7]; 7 WAT,7%
same,inhibition at 3000 g/ha,[7]; 3 WAT,72%
same,inhibition at 3000 g/ha,[7]; 5 WAT,43%
same,inhibition at 3000 g/ha,[7]; 7 WAT,38%
